Data set [1] is described as follows: Antiproliferative activity against human K562/4 cells assessed as growth inhibition measured after 72 hrs by MTT assay. The following applies: K562/4, 72 h.
Another data set deals with Carbonic anhydrase 9 (Homo sapiens, UniProt Q16790). Description: Inhibition of human CA9 preincubated for 15 mins by phenol red dye based stopped flow CO2 hydration assay.
A further data set deals with Carbonic anhydrase 12 (Homo sapiens, UniProt O43570). Briefly: Inhibition of human CA12 preincubated for 15 mins by phenol red based stopped flow CO2 hydration assay.
Chain of Carbonic anhydrase 12 (O43570 whole entry): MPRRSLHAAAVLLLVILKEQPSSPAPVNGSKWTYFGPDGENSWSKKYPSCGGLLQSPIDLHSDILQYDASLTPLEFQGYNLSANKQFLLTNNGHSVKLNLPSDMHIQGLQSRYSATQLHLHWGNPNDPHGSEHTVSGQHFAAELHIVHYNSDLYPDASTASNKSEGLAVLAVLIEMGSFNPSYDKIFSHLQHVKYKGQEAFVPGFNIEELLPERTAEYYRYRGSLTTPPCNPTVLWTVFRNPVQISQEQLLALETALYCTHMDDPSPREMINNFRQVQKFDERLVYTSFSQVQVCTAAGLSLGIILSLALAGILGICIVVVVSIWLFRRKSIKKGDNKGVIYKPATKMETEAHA
Data set [2] has as its system MCF7. Description: Antiproliferative activity against human MCF7 cells assessed as growth inhibition measured after 72 hrs by MTT assay. The following applies: MCF7, 72 h.
Another data set deals with K562. Briefly: Antiproliferative activity against human K562 cells assessed as growth inhibition measured after 72 hrs by MTT assay. The following applies: K562, 72 h.
Data set [3] relates to MCF7. Briefly: Antiproliferative activity against human MCF7 cells assessed as growth inhibition under hypoxia conditions measured after 72 hrs by MTT assay. As to conditions: MCF7, 72 h.
Data set [4] deals with T47D. Description: Antiproliferative activity against human T47D cells assessed as growth inhibition under normoxia conditions measured after 72 hrs by MTT assay.
Data set [5] relates to T47D. Briefly: Antiproliferative activity against human T47D cells assessed as growth inhibition under hypoxia conditions measured after 72 hrs by MTT assay.
The test system of data set [6] is MDA-MB-231. Description: Antiproliferative activity against human MDA-MB-231 cells assessed as growth inhibition under normoxia conditions measured after 72 hrs by MTT assay. As to conditions: MDA-MB-231, 72 h.
The subject of data set [7] is MDA-MB-231. Description: Antiproliferative activity against human MDA-MB-231 cells assessed as growth inhibition under hypoxia conditions measured after 72 hrs by MTT assay. As to conditions: MDA-MB-231, 72 h.
The nature of data set [8]: Cytotoxicity against human MCF-10A assessed as cell viability under normoxia conditions measured after 72 hrs by MTT assay. Format: toxicity, cell-based. As to conditions: MCF-10A cells.
The test system of data set [9] is HCT-116. Briefly: Antiproliferative activity against human HCT-116p53KO subline assessed as growth inhibition measured after 72 hrs by MTT assay. The following applies: HCT-116, 72 h.
For data set [10], the system named is MCF7. Description: Induction of apoptosis in human MCF7 cells assessed as NFkappaB activity upto 5 uM measured after 48 hrs by immunoblotting analysis. Format: functional, cell-based. The following applies: dose microM <=5, time 48.0 hrs.
The subject of data set [11] is MCF7. Description: Induction of apoptosis in human MCF7 cells assessed as PARP cleavage upto 5 uM measured after 48 hrs by immunoblotting analysis. Format: functional, cell-based. As to conditions: dose microM <=5, time 48.0 hrs.
Data set [12] deals with MCF7. Description: Induction of apoptosis in human MCF7 cells assessed as decrease in Bcl2 expression upto 5 uM measured after 48 hrs by immunoblotting analysis. Format: functional, cell-based. As to conditions: dose microM <=5, time 48.0 hrs.
For data set [13], the system named is MCF7. Description: Induction of apoptosis in human MCF7 cells assessed as […] in BAD protein expression upto 5 uM measured after 48 hrs by immunoblotting analysis. As to conditions: dose microM <=5, time 48.0 hrs. Format: functional, cell-based.
Data set [14] deals with MCF7. Description: Induction of apoptosis in human MCF7 cells assessed as decrease in ERalpha protein expression upto 5 uM measured after 48 hrs by immunoblotting analysis. As to conditions: dose microM <=5, time 48.0 hrs. Format: functional, cell-based.
Data set [15] is described as follows: Cytotoxicity against human MCF-10A assessed as cell viability under hypoxia conditions measured after 72 hrs by MTT assay. As to conditions: MCF-10A cells. Format: toxicity, cell-based.
Data set [16] has as its system HCT-116. Description: cells. As to conditions: Homo sapiens, HCT-116, 72 h.
Description: Antiproliferative activity against human HCT-116 assessed as growth inhibition measured after 72 hrs by MTT assay

Calls of active or inactive are those of the source. The rule behind the calls is not given here.

This note sets out measurements from ChEMBL document CHEMBL5046238, “Synthesis, biological evaluation, and in silico studies of potential activators of apoptosis and carbonic anhydrase inhibitors on isatin-5-sulfonamide scaffold” (Eur J Med Chem, 2022).

In the case of `NS(=O)(=O)c1ccc2c(c1)C(=O)C(=O)N2Cc1ccc(SC(F)(F)F)cc1`, the IC50 in data set [1] stood at 6.5 µM; in the data set with MCF7 [2], 2.6 µM; in the data set on K562 it was 4.5 µM; in the data set on MCF7 [3], 3.2 µM; in the data set with T47D [4] it was 6.3 µM; in the data set with T47D [5], 20.3 µM. Also, the concentration for half-maximal inhibition (IC50) with MDA-MB-231 [6] was 6.9 µM; in the data set on MDA-MB-231 [7], 10.8 µM; with HCT-116 [9], 15 µM; in the data set with HCT-116 [16], 14.5 µM. The values for the inhibitory constant (Ki) at Carbonic anhydrase 9 and on Carbonic anhydrase 12 were 1.77 µM and over 10 µM, respectively. Moreover, the values for the half-inhibitory concentration (IC50) at 72 h in [8] and in data set [15] were 6.4 µM and 8.6 µM, respectively. The result in the data set on MCF7 [10], in the data set with MCF7 [11] and with MCF7 [12] was Active. Moreover, in the data set on MCF7 [13], the result was inactive. Moreover, in the data set with MCF7 [14], the Activity result is “Dose-Dependent Effect”.
